From paper PMC7768359, “Synthesis of Platinum(II) Complexes with Some 1-Methylnitropyrazoles and In Vitro Research on Their Cytotoxic Activity” (Pharmaceuticals, 2020)

What was measured:
HL-60 cells [1] = assay: Determination of apoptosis by Annexin V / PI staining; format: cell-based, human; settings: 48 h
Method: (§1) To establish how compounds 1 and 2 influence the cell cycle and cell death, the HL-60 human promyelocytic leukemia cell line was used. The results are outlined in the Figure 7 and Figure 8, respectively. […] This led to disturbances in the cell cycle progression, expressed as a significant decrease in G0/G1 and S phase, compared to the untreated control (Figure 7).
The HL-60 cells and compounds tested were prepared in the same way as for analysis of the cell cycle distribution. The cells were also exposed to camptothecin (2 µg/mL; Sigma-Aldrich, Steinheim, Germany) as a positive control of apoptosis induction. After 48 h of incubation, or in the case of camptothecin after 24 h, the cells were collected and washed in PBS (HIIET, Wroclaw, Poland) supplemented with 2% of fetal bovine serum and counted in a hemacytometer. The cells (2 × 10^5) were washed twice in PBS. Next, cells were suspended in 200 μL of the mixture of HEPES buffer: 10 mM HEPES, 150 mM NaCl, 5 mM KCl, 1 mM MgCl2, 1.8 mM CaCl2, (HIIET, Wroclaw, Poland) and Annexin V-FITC (Alexis Biochemicals, San Diego, CA, USA), each time freshly prepared according to the manufacturer’s recommendations. After 15 min of incubation in darkness at room temperature, propidium iodide (PI) solution (0.1 mg/mL) was added prior to analysis to give a final concentration of 10 µg/mL. […] Data were analyzed in a BD FACS Diva 6.2 program. […]

HL-60 cells [2] = assay: Cell cycle analysis (propidium iodide, flow cytometry); format: cell-based, human; settings: 80 µM, 48 h
Method: as §1
Cultured HL-60 cells (human acute promyelocytic leukemia) were seeded at a density of 2 × 10^5 cells/mL of culture medium on 24-well plates (Corning, NY, USA) to a final volume of 2 mL. […] The stock solutions of platinum derivatives were prepared as described above.
After 48 h of incubation, the cells were collected and washed in phosphate-buffered saline (PBS; HIIET, Wroclaw, Poland) supplemented with 2% of fetal bovine serum and counted in a hemocytometer. Then, the cells (1 × 10^6 per sample) were washed twice in cold PBS and fixed for 24 h in 70% ethanol at −20 °C. Following this, the cells were washed twice in PBS and incubated with RNAse (8 μg/mL, Fermentas GmbH, St. Leon-Rot, Germany) at 37 °C for 1 h. Finally, the cells were stained for 30 min with propidium iodide (0.5 mg/mL; Sigma-Aldrich, Steinheim, Germany) at 4 °C and the cellular DNA content was determined using a BD LSR Fortessa instrument (Becton Dickinson, San Jose, CA, USA) and WinMDI 2.8 software. The experiment was repeated at least three times.

[3] = Reaction with L-glutathione, UV absorbance at 260 nm; format: physicochemical; settings: 2 mM GSH, pH 7.4, 37 °C
Source text: Platinum compounds have a strong ability to react with sulfur donor ligands. […] These side reactions are considered as playing an important role in mechanisms of tumor resistance to platinum drugs, their inactivation, and toxic side effects. The two most important endogenous thiols to which platinum complexes can bind after intravenous administration or after they enter the cancer cell are reduced L-glutathione (GSH) and metallothionein (MT). In the present work, we investigated reactions of GSH with compounds 1 and 2, measuring the UV absorbance at 260 nm (which indicates the formation of Pt–S and S–S bonds) as a function of time using a double-beam spectrophotometer (Figure 6). […] Despite the better solubility of tested complexes in acetone, dioxane was used in this experiment due to its lack of absorption of UV radiation at 260 nm in contrast to acetone that strongly absorbs at this wavelength preventing a correct measurement of absorbance changes.
The solutions of compounds 1 or 2 in dioxane (30 µL) at 60 mM concentration were added to 3 mL of 2 mM solution of GSH (reduced L-glutathione) previously saturated with argon in the medium containing 10 mmol/L NaCl and 10 mmol/L Tris xHCl buffer, pH 7.4, warmed to 37 °C, reaching a final concentration of […] of the platinum complex. The reaction progress during incubation at 37 °C was monitored using UV absorption spectrometry at 260 nm. […]

| Compound | proapoptotic activity (Annexin V / propidium iodide) (HL-60 cells [1]; HL-60, 80 µM) | cell death (Sub-G1) and cell cycle progression of HL-60 cells (HL-60 cells [2]) | half-time of the reaction with GSH [3] [min] | effect on the number of necrotic and late apoptotic HL-60 cells (HL-60 cells [1]; compared to 0.3 µM cisplatin and control) |
| --- | --- | --- | --- | --- |
| Cn1cc([N+](=O)[O-])c[n+]1[Pt@SP2-2]([Cl])([Cl])[n+]1cc([N+](=O)[O-])cn1C [Compound 1, cis-dichloridobis(1-methyl-4-nitropyrazole)platinum(II)] | statistically significant increase in early and late apoptotic cells | induced cell death (Sub-G1) | 83 | – |
| Cn1cc([N+](=O)[O-])c[n+]1[Pt@SP3-2]([Cl])([Cl])[n+]1cc([N+](=O)[O-])cn1C [Compound 2, trans-dichloridobis(1-methyl-4-nitropyrazole)platinum(II)] | – | – | 13 | did not show any substantial effect |
